Laboratory results as given in patent publication EP0190464A2, “Novel anti-cancer drugs” (YEDA RESEARCH AND DEVELOPMENT COMPANY LIMITED, priority 1984, dated 1986).

How the values were obtained:
38C-13 tumor cells = test: Inhibition of DNA synthesis ([3H]-methylthymidine incorporation); assay type: cell-based, murine; details: Fig. 2
Protocol: Inhibition of DNA synthesis by the free platinum compounds of their complexes was determined as follows. Tumor cells (2-5 x 10^4/0.1 ml) suspended in their suitable grwoth media were dispersed into wells of microtiter plates. The Platinum compounds or complexes were added to the cells in […] aliquots. The plates were incubated for 21 hr at 37 °C in a humidified atmosphere of 5% CO2 in air. At that time 10 µl containing 0.5 µci of [^3H]-methylthymidine were added to each well and the plates were incubated for 3 hr as above. The reaction was terminated using a Titerteck cell harvester.
Pt complexes used in the in vitro and in vivo experiments were prepared under conditions of maximal binding, that is, 98-100% binding of the free drugs. In vivo experiments were performed with cis-Pt and cis-aq complexes. […] Cis-Pt and cis-aq complexes of dex-NH2 were tested and found to be active in vitro against 5 murine tumors (EL-4, 38-C13, L1210, RDM and F-9) and 2 human derived tumors (Hela and Osteosarcoma). […] This activity was lost, however upon exhaustive dialysis.

tumors = test: Activity against tumors in vivo (general statement); details: uncomplexed salt
[1] = test system: F-9 murine embryonal carcinoma cells; test: In vivo suppression of F-9 embryonal carcinoma, I.P. tumor and I.P. treatment; set-up: species or system Balb/c mice; effective dose (range): unit not given here; details: for survival (average): free drug at optimal doses, one day after tumor
Protocol: In vivo experiments were performed with F-9 murine embryonal carcinoma cells which were maintained in-vitro in DMEM supplemented with 10% fetal calf serum, glutamine and antibiotics, in gelatine (0.1%) coated culture flasks. In-vivo experiments were performed in female Balb/c mice at the age of 2-3 months.
In experiment I, 300,000 tumor cells were inoculated intraperitoneally (I.P.) into Balb/c mice.
The in vivo chemotherapeutic effect of the different complexes in comparison with free drugs was evaluated by the suppression of F9 embryonal carcinoma in Balb/c mice. […]

[2] = Toxicity in tumor-free mice, single I.V. injection; assay type: in vivo; details: free drugs, ICR mice
Protocol: Preliminary toxicity experiments with CM-dex and ?ex-NH2 complexes were performed to compare the toxicity of the free drugs and the complexes in tumor-free ICR mice. Pairs of mice were given a single I.V. injection of each of the drugs or drug complexes at a wide concentration range. Death of mice due to toxicity occurred between 1 to 7 days after injection. The results (Table 8) indicate the maximal non-toxic (none of the mice died) and the minimal toxic dose (death of both mice). […] The CM-dex T-40 of both drugs were also toxic although somewhat less than the free drugs, with no significant difference between the cis-Pt and cis-aq complexes. […] The dex-NH2 were also considerably less toxic than the free drugs.

[3] = Exp. II: 600,000 cells I.P., treatment 2 days after tumor, 60 µg
[4] = Exp. I: 300,000 tumor cells I.P., 50 µg, out of 5 TBM

Structure (SMILES)	fold less inhibitory than cis-Pt and cis-aq (38C-13 tumor cells)	IC50 (38C-13 tumor cells; read-out: 50% inhibition of DNA synthesis, 21 hr at 37°C with drug, then 3 hr [3H]-methylthymidine pulse)	activity against tumors in vivo (tumors)	died of the tumor ([1]; Exp. I: 300,000 tumor cells I.P., 100 ug I.P. 1 day after tumor inoculation)	time of death of the tumor after receiving the tumor cells ([1]; Exp. I: 300,000 tumor cells I.P., 100 ug I.P. day 1, the 1/5 mouse that died of tumor)	protective against the tumor [1, 3]	survival (average) ([1]; F9 tumor, Table 7)	died of drug toxicity [1, 4]	died of the tumor [1, 4]	survived [1, 4]	non-protective against the tumor [1, 3]	toxic [1, 3]	effective dose (range) ([1]; F9 tumor, single dose, Table 5)	toxicity at a slightly higher than optimal dose ([1]; F9 tumor, free drug, Table 7)	toxicity compared with cis-Pt [2]
[Cl][Pt-2]([Cl])([Cl])[Cl].[K+].[K+] [K2PtCl4]	20 fold	20 µM	essentially inactive	–	–	–	–	–	–	–	–	–	–	–	–
N.N.[Cl][Pt][Cl] [cis-Pt, Cis-dichlorodiammine Platinum (II)]	–	–	–	1/5	54 days	4/5	60-80%	–	–	–	–	–	–	–	–
N.N.O.O.O=[N+]([O-])[O-].O=[N+]([O-])[O-].[Pt+2] [cis-aq, diaquodiammine Platinum (II)-nitrate]	–	–	–	–	–	–	60-80%	1	3	1	2/5	3/5	40	at least partially toxic	more toxic than cis-Pt
